Here are results for two molecules from patent US5688773A, “Method of selectively destroying neoplastic cells” (priority 1994, dated 1997).

In data set [1] the test system is C6BAG cells co-cultured with C6VIKWT cells. Nature of the data set: Delayed co-culture, ganciclovir sensitivity of recipient colonies. The class given is cell-based, rat. As to the method: Donor C6VIK or C6VIKWT cells were then added to the cultures at a ratio of 1:2 (5×10^4 recipient cells: 10^5 donor cells). Control cultures consisted of C6BAG or C6BBAG cells alone, or C6BA6 or C6BBAG cells co-plated with "donor" C6BU1 or C6BWT cells, after delay, as above. After 10 days, ganciclovir was added at varying concentrations (0-300 μM) and cells were incubated for another 9-12 days with the drug. Cells were then fixed with 0.5% glutaraldehyde and stained histochemically for beta-galactosidase activity, as described (Price et al., Proc. Natl. Acad. Sci. USA 84:1141-1145 (1987)), and colonies were counted.

In a further data set the test system is C6BAG cells alone. Kind of data set: GCV treatment of subcutaneous tumors. The class given is in vivo, nude mice. Conditions: subcutaneous inoculation.
A further data set has as its system CNEO-1 cells. Nature of the data set: Cyclophosphamide dose-response assay. The class given is cell-based. Conditions: Rattus norvegicus, C6 glioma; up to 1 mM CPA; read-out: cells that survived incubation.
For another data set, the system named is C450-8 tumors. Nature of the data set: Cyclophosphamide sensitivity of subcutaneous tumors. The class given is in vivo, nude mice. Conditions: day 17. As to the method: (§1) Animal Studies: For animal injections, cultured cells in the proliferative stage were replated 24 hours before harvesting, then trypsinized, centrifuged at low speed, washed once by resuspension in Hank's buffered saline, centrifuged, and then resuspended in DMEM without serum at a density of 5×10^6 cells/mL. For subcutaneous injections, 10^6 C450-8 or C6 cells in 200 μl were injected into the flanks of athymic mice (NCY/Sed, nu/nu; MGH breeding colony; five animals per group). After 3 days, when tumors had reached a volume of about 0.01 cm^3 (as measured by external calipers) (Lee et al., Neurosurgery 26:598-605 (1990) and again at 14 days, 100 μl injections of either 20 mg CPA (Sigma) per mL saline or 100 μl saline were performed directly into the tumor mass. Animals were sacrificed at 17 days by euthanasia.

The test system of another data set is C6 tumors. The description is as above. The class given is in vivo, nude mice. Conditions: day 17. As for the experimental part: as §1
Data set [2] has as its system C6 glioma plus CRELacZ cells. Kind of data set: Brain tumor model, fibroblast graft then intrathecal/intratumoral CPA. The class given is in vivo, athymic mice. As to the method:
(§2) For intracerebral injections, mice were anesthetized with an intraperitoneal injection of Ketamin (100 mg per kg body weight) (Parke Davis, NJ) and Xylazine (20 mg per kg body weight) (Mobay Corp., KS). Surgical procedures were performed in a sterile fashion. After immobilizing the rodent in stereotactic apparatus (Kopf), a small incision was made in the skin overlying the skull. C6 glioma cells (10^3 cells in 2 μl) were stereotactically inoculated approximately 0.5 mm frontal and 0.5 mm right lateral to the bregma using a Hamilton syringe. The inoculation period was 5 minutes, with 2 minutes allowed for needle retraction. Three days later, the same burrhole was employed for the stereotactic grafting of 5×10^6 CRELacZ cells (cell line kindly provided by Dr. R. Mulligan, MIT) or 5×10^6 R450-2 cells in 25 μl of DMEM. Four, eight, and eleven days after this last injection, CPA (0.3 mg in 5 μl) was administered stereotactically, through the same skull opening, into the tumor and meningeal space of mice from both CRELacZ and R450-2 groups. Injections were carried out stereotactically over a period of ten minutes, with five minutes allowed for needle retraction. Animals were sacrificed, ten days after injection of the last dose of prodrug, by perfusing through the left ventricle approximately 3-5 mL of 100 mM sodium phosphate in 0.9% sodium chloride, pH 7.3, followed by 4% paraformaldehyde in 100 mM sodium phosphate, pH 7.3. Brains were carefully dissected from the skull and jaws of the animals, prior to placement overnight in 4% paraformaldehyde in 100 mM sodium phosphate, pH 7.3. For cryopreservation, brains were placed in 20% glycerol/10% dimethylsulfoxide in 100 mM sodium phosphate, pH 7.3, and then cut in 50 micron sections with a sledge microtome. Every sixth section was mounted onto gelatin-coated slides and stained with cresyl violet. To calculate brain tumor volumes, a computerized-image analyzer was used to scan tumor areas on each section. This analysis was performed in a blind fashion. Manual contouring was performed to distinguish tumor from normal brain cysts, or processing artifacts. Tumor volumes were obtained by multiplying the average tumor area from all sections in a brain by the distance (0.3 mm) between and including each section.

Data set [3] deals with C6 glioma plus R450-2 cells. Described as above. The class given is in vivo, athymic mice. As to the method: as §2
For another data set, the system named is C6 cells. Kind of data set: Conditioned medium from co-cultures added to naive C6 cells. The class given is cell-based, rat. Conditions: CM from co-cultures with 0, 10, or 50% P450 2B1 cells after four-day CPA. As for the experimental part: Co-culture assay: Co-cultures of C6-P450 and C6 cells were incubated in triplicate at different ratios (where 0, 10, 50, 90, and 100% of the cells were C6-P450 cells) to achieve a total number of 2×10^6 cells/10 cm dish. After 24 hours, 0.5 mM CPA was added and four days later, cells were counted as previously described. To compare the killing achieved by cell contact with that obtained by exposure to conditioned medium, the supernatant from each co-culture was harvested, filtered through 0.45 μm membrane filters, mixed in a 1:1 ratio with 5 mL of fresh medium and added to overnight cultures of C6 cells (2×10^6 cells/10 cm dish in triplicate). Four days later, C6 cells were washed, harvested and counted. To determine the specificity of the cell-mediated killing effect from the co-culture assays, C6 cells were incubated overnight with C6 cells that expressed the neomycin phosphotransferase gene (C6-Neo), with irradiated C6 cells, with irradiated C6-Neo, and with irradiated C6-P450 cells. γ-irradiation was performed by exposing cells to a total of 6000 rads emitted by a ^51 chromium source.

The subject of data set [4] is cytochrome P450 2B1-negative cells (parental 9L and 9L-Z). Kind of data set: Drug sensitivity of cultured 9L cells. Conditions: millimolar concentrations. The class given is cell-based, rat. As to the method: To test for drug sensitivity, 1×10^5 cells were plated in 30-mm tissue culture plates (Falcon 3046) in duplicate. Drugs were added 18-24 hours after seeding. Cells were allowed to grow for times ranging up to 5 days after drug treatment, and the final cell number was then determined. Cells were rinsed with phosphate buffered saline or Hank's buffered saline, dispersed using trypsin-EDTA (GIBCO/BRL, Inc.), and then counted with a hemocytometer. Results are expressed as a growth ratio, i.e., the number of cells in plates containing drug as a percentage of the corresponding drug-free controls (mean±range of duplicate determinations).

[5] abbreviates: 2 mg CPA intratumorally day 3 and 14.
The mark [6] stands for this setting: CPA 0.3 mg on days 4, 8, 11 after graft, sacrifice ten days after last dose.
Where [7] appears, read: individual animals, after cyclophosphamide administration.

Several values for one entry are separate records, joined by “and”; a condition that tells them apart may be missing. Equal values may be shown once.

Method for CNEO-1 cells: Two days later CPA was added to final concentrations of 0-100 μM. Five days after plating, the monolayers were rinsed twice with Hank's buffered saline (GIBCO) to remove dead cells. Monolayers were dispersed using trypsin-EDTA (GIBCO), and cell numbers were determined using a Coulter counter (Coulter Electronics Inc.).

On to `Nc1nc(O)c2ncn(COC(CO)CO)c2n1` [ganciclovir], for which the IC50 in data set [1] (Rattus norvegicus, ratio 1:2, read-out: ganciclovir concentration at which 50% of cells grew) amounted to 3000 nM. Besides, the “Survival of beta-galactosidase-positive recipient colonies” value in [1] (ratio 1:2) is reported as “almost complete ablation of the recipient cells”. The Tumor regression result in the data set with C6BAG cells alone is “not with C6BAG cells alone”.
For `O=P1(N(CCCl)CCCl)NCCCO1` (stereo not drawn) [cyclophosphamide], the viability at 1000 µM in the data set on CNEO-1 cells was at least 80%. Moreover, the Tumor volume with C450-8 tumors (setting [5]) was 0.016±0.003 cm^3; in the data set on C6 tumors (setting [5]) it was 0.093±0.035 cm^3. Moreover, the figures for the “ratio of the mean volumes of CPA-treated to saline-treated tumors” value in the data set on C450-8 tumors and in the data set on C6 tumors were 0.035 and 0.124, respectively. Further, in data set [2] (setting [6]), the “animals with extensive and friable meningeal tumor” value is given as 8/8. In addition, the “Tumor necrosis of parenchymal tumors” value in [2] (histopathology of six brains) was “essentially no tumor necrosis”. Moreover, the “Volumes of parenchymal brain tumors” value is 47.5 mm^3 and 51.5 mm^3 and 54.7 mm^3 and 62.4 mm^3 and 72.6 mm^3 and 85.1 mm^3 in [2] (setting [7]); 3.2 mm^3 and 14.2 mm^3 and 28.4 mm^3 and 87.4 mm^3 and 105.3 mm^3 and 171.4 mm^3 in [3] (setting [7]). In data set [3] (CPA 0.3 mg on days 4, 8, 11 after graft), the “animals with a small residual meningeal mass” value was 1/8. Also, the “animals with no evidence of meningeal tumor” value in data set [3] (setting [6]) is on record as 7/8. Besides, the “brains with extensive tumor necrosis” value in [3] (histopathology of six brains) is recorded as 3/6. Moreover, the “brain tumor volume as fraction of average volume in lacZ-producer controls” value in data set [3] (three of six animals, listed as CPA) is “approximately 1/20 and 1/5 and 1/2”. The “Inhibition of proliferation of C6 cells” value with C6 cells was “no inhibition”. In addition, the Effects on growth entry in data set [4] is recorded as “no adverse effects”.
